Data: PubChem BioAssay AID180 (DTP/NCI, 2004)
“And” between values parts separate entries of the source, which are not always exact repeats. Identical values can stand only once.

Test system: BDF1 mice, Adenocarcinoma 755 s.c., tumor weight T/C
Assay: NCI In Vivo Anticancer Drug Screen. Data for tumor model Adenocarcinoma 755 (subcutaneous) in B6D2F1 (BDF1) mice
Conditions: endpoint: mean tumor weight, higher = larger tumour
Method in brief: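 In vivo antitumor screen on a transplantable tumor line. Result equals the measure in compound-treated animals divided by the same measure in vehicle controls.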

CN(Cc1cnc2nc(N)nc(N)c2n1)c1ccc(C(=O)N[C@@H](CCC(=O)O)C(=O)O)cc1
T/C (dose: 0.56 mg/kg/injection, schedule: Q01DX011 (ip), vehicle: carboxymethylcellulose (CMC)): 94 % of control
T/C (dose: 0.84 mg/kg/injection, schedule: Q01DX011 (ip), vehicle: carboxymethylcellulose (CMC)): 57 % of control
T/C (dose: 1.0 mg/kg/injection, schedule: Q01DX011 (ip), vehicle: other): 77 % of control
T/C (dose: 1.05 mg/kg/injection, schedule: Q01DX011 (ip), vehicle: carboxymethylcellulose (CMC)): 48 % of control
T/C (dose: 1.13 mg/kg/injection, schedule: Q01DX011 (ip), vehicle: carboxymethylcellulose (CMC)): 48 % of control
T/C (dose: 1.4 mg/kg/injection, schedule: Q01DX011 (ip), vehicle: carboxymethylcellulose (CMC)): 36 % of control
T/C (dose: 2.0 mg/kg/injection, schedule: Q01DX011 (ip), vehicle: carboxymethylcellulose (CMC)): 49 % of control
T/C (dose: 2.0 mg/kg/injection, schedule: Q01DX011 (ip), vehicle: other): 43 % of control
T/C (dose: 2.1 mg/kg/injection, schedule: Q01DX011 (ip), vehicle: carboxymethylcellulose (CMC)): 27 % of control
T/C (dose: 2.25 mg/kg/injection, schedule: Q01DX011 (ip), vehicle: carboxymethylcellulose (CMC)): 96 % of control
T/C (dose: 4.5 mg/kg/injection, schedule: Q01DX011 (ip), vehicle: carboxymethylcellulose (CMC)): 48 % of control
T/C (dose: 263.0 micrograms/kg/injection, schedule: Q01DX011 (ip), vehicle: carboxymethylcellulose (CMC)): 66 % of control
T/C (dose: 525.0 micrograms/kg/injection, schedule: Q01DX011 (ip), vehicle: carboxymethylcellulose (CMC)): 53 % of control
T/C (dose: 563.0 micrograms/kg/injection, schedule: Q01DX011 (ip), vehicle: carboxymethylcellulose (CMC)): 63 % of control
T/C (dose: 1050.0 micrograms/kg/injection, schedule: Q01DX011 (ip), vehicle: carboxymethylcellulose (CMC)): 68 % of control
T/C (dose: 1125.0 micrograms/kg/injection, schedule: Q01DX011 (ip), vehicle: carboxymethylcellulose (CMC)): 97 % of control
T/C (dose: 2100.0 micrograms/kg/injection, schedule: Q01DX011 (ip), vehicle: carboxymethylcellulose (CMC)): 31 % of control
T/C (dose: 2250.0 micrograms/kg/injection, schedule: Q01DX011 (ip), vehicle: carboxymethylcellulose (CMC)): 68 % of control

C[C@]12C[C@H](O)[C@H]3[C@@H](CCC4=CC(=O)CC[C@@]43C)[C@@H]1CC[C@@H]2C(=O)CO
T/C (dose: 10.0 mg/kg/injection, schedule: Q01DX011 (ip), vehicle: steriod suspending solution): 110 % of control
T/C (dose: 10.0 mg/kg/injection, schedule: Q01DX011 (sc), vehicle: steriod suspending solution): 79 % of control
T/C (dose: 20.0 mg/kg/injection, schedule: Q01DX011 (ip), vehicle: steriod suspending solution): 103 % of control
T/C (dose: 20.0 mg/kg/injection, schedule: Q01DX011 (sc), vehicle: steriod suspending solution): 84 % of control
T/C (dose: 40.0 mg/kg/injection, schedule: Q01DX011 (im), vehicle: steriod suspending solution): 67 % of control
T/C (dose: 40.0 mg/kg/injection, schedule: Q01DX011 (ip), vehicle: steriod suspending solution): 81 % of control
T/C (dose: 40.0 mg/kg/injection, schedule: Q01DX011 (iv), vehicle: steriod suspending solution): 87 % of control
T/C (dose: 40.0 mg/kg/injection, schedule: Q01DX011 (sc), vehicle: steriod suspending solution): 64 % of control
T/C (dose: 50.0 mg/kg/injection, schedule: Q#A X022 (sc), vehicle: steriod suspending solution): 20 % of control
T/C (dose: 80.0 mg/kg/injection, schedule: Q01DX011 (im), vehicle: steriod suspending solution): 49 % of control
T/C (dose: 80.0 mg/kg/injection, schedule: Q01DX011 (ip), vehicle: steriod suspending solution): 95 % of control
T/C (dose: 80.0 mg/kg/injection, schedule: Q01DX011 (iv), vehicle: steriod suspending solution): 64 % of control
T/C (dose: 80.0 mg/kg/injection, schedule: Q01DX011 (oral), vehicle: steriod suspending solution): 58 % of control
T/C (dose: 80.0 mg/kg/injection, schedule: Q01DX011 (sc), vehicle: steriod suspending solution): 51 % of control
T/C (dose: 100.0 mg/kg/injection, schedule: Q01DX011 (oral), vehicle: steriod suspending solution): 38 % of control
T/C (dose: 100.0 mg/kg/injection, schedule: Q#A X022 (sc), vehicle: steriod suspending solution): 8 % of control
T/C (dose: 150.0 mg/kg/injection, schedule: Q03DX004 (sc), vehicle: steriod suspending solution): 51 % of control
T/C (dose: 160.0 mg/kg/injection, schedule: Q01DX011 (im), vehicle: steriod suspending solution): 30 % of control
T/C (dose: 160.0 mg/kg/injection, schedule: Q01DX011 (ip), vehicle: steriod suspending solution): 72 % of control
T/C (dose: 160.0 mg/kg/injection, schedule: Q01DX011 (iv), vehicle: steriod suspending solution): 42 % of control
T/C (dose: 160.0 mg/kg/injection, schedule: Q01DX011 (sc), vehicle: steriod suspending solution): 31 % of control
T/C (dose: 175.0 mg/kg/injection, schedule: Q07DX002 (sc), vehicle: steriod suspending solution): 104 % of control
T/C (dose: 300.0 mg/kg/injection, schedule: Q03DX004 (sc), vehicle: steriod suspending solution): 24 % of control
T/C (dose: 320.0 mg/kg/injection, schedule: Q01DX011 (im), vehicle: steriod suspending solution): 22 % of control
T/C (dose: 320.0 mg/kg/injection, schedule: Q01DX011 (ip), vehicle: steriod suspending solution): 42 % of control
T/C (dose: 320.0 mg/kg/injection, schedule: Q01DX011 (oral), vehicle: steriod suspending solution): 38 % of control
T/C (dose: 320.0 mg/kg/injection, schedule: Q01DX011 (sc), vehicle: steriod suspending solution): 16 % of control
T/C (dose: 350.0 mg/kg/injection, schedule: Q07DX002 (sc), vehicle: steriod suspending solution): 58 % of control
T/C (dose: 400.0 mg/kg/injection, schedule: Q01DX011 (oral), vehicle: steriod suspending solution): 22 % of control
T/C (dose: 600.0 mg/kg/injection, schedule: Q03DX004 (sc), vehicle: steriod suspending solution): 9 % of control
T/C (dose: 640.0 mg/kg/injection, schedule: Q01DX011 (oral), vehicle: steriod suspending solution): 17 % of control and 18 % of control
T/C (dose: 700.0 mg/kg/injection, schedule: Q07DX002 (sc), vehicle: steriod suspending solution): 20 % of control
T/C (dose: 1200.0 mg/kg/injection, schedule: Q03DX004 (sc), vehicle: steriod suspending solution): 5 % of control
T/C (dose: 1400.0 mg/kg/injection, schedule: Q07DX002 (sc), vehicle: steriod suspending solution): 16 % of control

Cc1cc(N=Nc2ccc(-c3ccc(N=Nc4ccc(O)c(C(=O)O)c4)cc3)cc2)c(N)c(N=Nc2ccc(C(=O)Nc3ccc4cc(S(=O)(=O)O)ccc4c3)cc2)c1N
T/C (dose: 45.0 mg/kg/injection, schedule: Q01DX011 (ip), vehicle: carboxymethylcellulose (CMC)): 158 % of control
T/C (dose: 65.0 mg/kg/injection, schedule: Q01DX011 (ip), vehicle: carboxymethylcellulose (CMC)): 119 % of control
T/C (dose: 100.0 mg/kg/injection, schedule: Q01DX011 (ip), vehicle: carboxymethylcellulose (CMC)): 69 % of control
T/C (dose: 150.0 mg/kg/injection, schedule: Q01DX011 (ip), vehicle: carboxymethylcellulose (CMC)): 72 % of control

CCCCNc1ncnc2c1cnn2C1CCCCO1 (stereo not given)
T/C (dose: 3.12 mg/kg/injection, schedule: Q01DX011 (ip), vehicle: methylcellulose (MC)): 39 % of control
T/C (dose: 6.25 mg/kg/injection, schedule: Q01DX011 (ip), vehicle: methylcellulose (MC)): 44 % of control
T/C (dose: 12.5 mg/kg/injection, schedule: Q01DX011 (ip), vehicle: methylcellulose (MC)): 20 % of control
T/C (dose: 25.0 mg/kg/injection, schedule: Q01DX011 (ip), vehicle: methylcellulose (MC)): 12 % of control

C/C(=N\NC(=O)c1ccncc1)c1ccc(Cl)cc1Cl
T/C (dose: 30.0 mg/kg/injection, schedule: Q01DX011 (ip), vehicle: methylcellulose (MC)): 41 % of control
T/C (dose: 60.0 mg/kg/injection, schedule: Q01DX011 (ip), vehicle: methylcellulose (MC)): 58 % of control

O=CNC(Cc1ccc(N(CCCl)CCCl)cc1)C(=O)O (stereo not given)
T/C (dose: 1.25 mg/kg/injection, schedule: Q01DX011 (ip), vehicle: carboxymethylcellulose (CMC)): 94 % of control
T/C (dose: 1.25 mg/kg/injection, schedule: Q01DX011 (ip), vehicle: saline): 87 % of control
T/C (dose: 2.5 mg/kg/injection, schedule: Q01DX011 (ip), vehicle: carboxymethylcellulose (CMC)): 54 % of control
T/C (dose: 2.5 mg/kg/injection, schedule: Q01DX011 (ip), vehicle: saline): 91 % of control
T/C (dose: 5.0 mg/kg/injection, schedule: Q01DX011 (ip), vehicle: carboxymethylcellulose (CMC)): 31 % of control and 50 % of control
T/C (dose: 5.0 mg/kg/injection, schedule: Q01DX011 (ip), vehicle: saline): 71 % of control
T/C (dose: 10.0 mg/kg/injection, schedule: Q01DX011 (ip), vehicle: carboxymethylcellulose (CMC)): 23 % of control
T/C (dose: 10.0 mg/kg/injection, schedule: Q01DX011 (ip), vehicle: methylcellulose (MC)): 34 % of control
T/C (dose: 10.0 mg/kg/injection, schedule: Q01DX011 (ip), vehicle: saline): 66 % of control
T/C (dose: 20.0 mg/kg/injection, schedule: Q01DX011 (ip), vehicle: methylcellulose (MC)): 34 % of control
T/C (dose: 40.0 mg/kg/injection, schedule: Q01DX011 (ip), vehicle: carboxymethylcellulose (CMC)): 2 % of control
T/C (dose: 40.0 mg/kg/injection, schedule: Q01DX011 (ip), vehicle: methylcellulose (MC)): 23 % of control
T/C (dose: 80.0 mg/kg/injection, schedule: Q01DX011 (ip), vehicle: methylcellulose (MC)): 4 % of control
